The supplement of paper PMC10307832

What was measured:
Experiment in all cases: relative viability (nuclei count vs DMSO), 5 days (fraction); higher = more cells survive
[1] = tested on: UMC-11; details: first compound 0.5 µM
Summary of the method: (§1)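 Relative viability divides the nuclei count in treated wells by that in vehicle wells. Lung cancer cell lines were seeded in 1536-well plates, dosed by pin tool the next day, and fixed and stained after 5 days in one step with final 0.05% Triton X-100, 1% formaldehyde and 1 ug/ml Hoechst. Dosing was a single drug or a fixed anchor-drug dose plus five library-drug doses (not always all listed) in √10 steps, and values are medians of duplicate plates imaged at 4×.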

[2] = tested on: NCI-H2126
Summary of the method: as §1

[3] = tested on: NCI-H838
Summary of the method: as §1

[4] = tested on: NCI-H358
Summary of the method: as §1

[5] = tested on: PC-14
Summary of the method: as §1

[6] = tested on: NCI-H2342
Summary of the method: as §1

[7] = tested on: LU99A
Summary of the method: as §1

[8] = tested on: NCI-H2347
Summary of the method: as §1

[9] = tested on: EPLC-272H
Summary of the method: as §1

[10] = tested on: NCI-H1355
Summary of the method: as §1

[11] = tested on: SW 1573
Summary of the method: as §1

[12] = tested on: HARA
Summary of the method: as §1

Compound: CC1(C)CCC(c2ccc(Cl)cc2)=C(CN2CCN(c3ccc(C(=O)NS(=O)(=O)c4ccc(N[C@H](CCN5CCOCC5)CSc5ccccc5)c(S(=O)(=O)C(F)(F)F)c4)cc3)CC2)C1 [Navitoclax] + Nc1nc2[nH]cc(CCc3ccc(C(=O)N[C@@H](CCC(=O)O)C(=O)O)cc3)c2c(=O)[nH]1 [Pemetrexed] (partner 0.2 µM)
- relative viability [1]: 0.444
- relative viability ([2]; first compound 0.005 µM): 0.667
- relative viability ([2]; first compound 0.01581 µM): 0.696
- relative viability ([2]; first compound 0.05 µM): 0.671
- relative viability ([2]; first compound 0.1581 µM): 0.602
- relative viability ([2]; first compound 0.5 µM): 0.624
- relative viability ([3]; first compound 0.005 µM): 0.242
- relative viability ([3]; first compound 0.01581 µM): 0.254
- relative viability ([3]; first compound 0.05 µM): 0.28
- relative viability ([3]; first compound 0.1581 µM): 0.266
- relative viability ([3]; first compound 0.5 µM): 0.244
- relative viability ([4]; first compound 0.005 µM): 0.17
- relative viability ([4]; first compound 0.01581 µM): 0.173
- relative viability ([4]; first compound 0.05 µM): 0.167
- relative viability ([4]; first compound 0.1581 µM): 0.165
- relative viability ([4]; first compound 0.5 µM): 0.187
- relative viability ([5]; first compound 0.005 µM): 0.133
- relative viability ([5]; first compound 0.01581 µM): 0.118
- relative viability ([5]; first compound 0.05 µM): 0.136
- relative viability ([5]; first compound 0.1581 µM): 0.108
- relative viability ([5]; first compound 0.5 µM): 0.105
- relative viability ([6]; first compound 0.005 µM): 0.818
- relative viability ([6]; first compound 0.01581 µM): 0.81
- relative viability ([6]; first compound 0.05 µM): 0.805
- relative viability ([6]; first compound 0.1581 µM): 0.719
- relative viability ([6]; first compound 0.5 µM): 0.763
- relative viability ([7]; first compound 0.005 µM): 0.202
- relative viability ([7]; first compound 0.01581 µM): 0.205
- relative viability ([7]; first compound 0.1581 µM): 0.196
- relative viability ([7]; first compound 0.5 µM): 0.167
- relative viability ([8]; first compound 0.005 µM): 0.443
- relative viability ([8]; first compound 0.01581 µM): 0.439
- relative viability ([8]; first compound 0.05 µM): 0.411
- relative viability ([8]; first compound 0.1581 µM): 0.427
- relative viability ([8]; first compound 0.5 µM): 0.437
- relative viability ([9]; first compound 0.005 µM): 0.312
- relative viability ([9]; first compound 0.01581 µM): 0.268
- relative viability ([9]; first compound 0.05 µM): 0.347
- relative viability ([9]; first compound 0.1581 µM): 0.354
- relative viability ([9]; first compound 0.5 µM): 0.343
- relative viability ([10]; first compound 0.005 µM): 0.998
- relative viability ([10]; first compound 0.01581 µM): 1.05
- relative viability ([10]; first compound 0.05 µM): 1.11
- relative viability ([10]; first compound 0.1581 µM): 1.03
- relative viability ([10]; first compound 0.5 µM): 1.07
- relative viability ([11]; first compound 0.005 µM): 0.925
- relative viability ([11]; first compound 0.01581 µM): 0.773
- relative viability ([11]; first compound 0.05 µM): 0.787
- relative viability ([11]; first compound 0.1581 µM): 0.751
- relative viability ([11]; first compound 0.5 µM): 0.801
- relative viability ([12]; first compound 0.005 µM): 0.189
- relative viability ([12]; first compound 0.01581 µM): 0.232
- relative viability ([12]; first compound 0.05 µM): 0.255
- relative viability ([12]; first compound 0.1581 µM): 0.236
- relative viability ([12]; first compound 0.5 µM): 0.218
